pEC50: −log10 of the molar value.
Key:
[1] = molecular target: Beta-3 adrenergic receptor (Homo sapiens, UniProt P13945); assay: Agonistic activity was assessed by measuring cAMP accumulation in CHO cell lines expressing cloned human Beta-3 adrenergic receptor; type: functional, cell-based
[2] = molecular target: Beta-1 adrenergic receptor (Homo sapiens, UniProt P08588)
Description: Agonistic activity was assessed by measuring cAMP accumulation in CHO cell lines expressing cloned human Beta-1 adrenergic receptor

[3] = Area under concentration-time curve after orally administered dose of 0.32 mg/kg; type: ADME, organism-based, Canis lupus familiaris; set-up: dose 0.32 mg/kg, route oral; conditions: dog, in vivo, po
[4] = Maximum plasma concentration after orally administered dose of 3.2 mg/kg; type: ADME, organism-based; set-up: dose 3.2 mg/kg, route oral; conditions: rat, po
[5] = Total clearance rate after intravenous dose of 1 mg/kg; type: ADME, organism-based; set-up: dose 1 mg/kg, route intravenous; conditions: rat, in vivo, read-out: CLtot
[6] = Half life of compound after intravenous dose of 0.32 mg/kg; type: ADME, organism-based, Canis lupus familiaris; set-up: dose 0.32 mg/kg, route intravenous; conditions: dog, in vivo
[7] = molecular target: Beta-2 adrenergic receptor and beta-3 adrenergic receptor (Homo sapiens) (UniProt P07550+P13945); assay: Ratio of agonistic activity to produce cAMP by stimulating beta-2 and beta-3 adrenergic receptor in chinese hamster ovary cells; type: functional, cell-based
[8] = molecular target: Beta-2 adrenergic receptor (Homo sapiens, UniProt P07550); assay: Agonistic activity was assessed by measuring cAMP accumulation in CHO cell lines expressing cloned human Beta-2 adrenergic receptor; type: functional, cell-based
[9] = Percent bioavailability after intravenous dose of 1 mg/kg; type: ADME, organism-based; conditions: rat, in vivo
[10] = Area under concentration-time curve after orally administered dose of 3.2 mg/kg; type: ADME, organism-based; set-up: dose 3.2 mg/kg, route oral; conditions: rat, in vivo, po
[11] = Percent bioavailability after intravenous dose of 0.32 mg/kg; type: ADME, organism-based, Canis lupus familiaris; conditions: dog, in vivo
[12] = Half life of compound after intravenous dose of 1 mg/kg; type: ADME, organism-based; set-up: dose 1 mg/kg, route intravenous; conditions: rat, in vivo
[13] = Maximum plasma concentration after orally administered dose of 0.32 mg/kg; type: ADME, organism-based, Canis lupus familiaris; set-up: dose 0.32 mg/kg, route oral; conditions: dog, po
[14] = Total clearance rate after intravenous dose of 0.32 mg/kg; type: ADME, organism-based, Canis lupus familiaris; set-up: dose 0.32 mg/kg, route intravenous; conditions: dog, in vivo, read-out: CLtot

Sequence of Beta-3 adrenergic receptor (P13945 whole entry): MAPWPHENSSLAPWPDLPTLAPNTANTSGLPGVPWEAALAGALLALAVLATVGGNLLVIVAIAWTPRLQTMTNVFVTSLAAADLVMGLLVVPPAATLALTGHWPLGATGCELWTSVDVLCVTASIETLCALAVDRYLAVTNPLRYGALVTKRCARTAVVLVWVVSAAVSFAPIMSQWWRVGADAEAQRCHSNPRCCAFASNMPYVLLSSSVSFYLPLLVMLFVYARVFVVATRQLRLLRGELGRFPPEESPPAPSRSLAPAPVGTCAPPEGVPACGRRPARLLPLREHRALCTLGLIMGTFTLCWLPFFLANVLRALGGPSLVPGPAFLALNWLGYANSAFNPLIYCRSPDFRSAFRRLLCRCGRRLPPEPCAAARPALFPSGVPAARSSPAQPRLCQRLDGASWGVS
Sequence of Beta-1 adrenergic receptor (P08588 whole entry): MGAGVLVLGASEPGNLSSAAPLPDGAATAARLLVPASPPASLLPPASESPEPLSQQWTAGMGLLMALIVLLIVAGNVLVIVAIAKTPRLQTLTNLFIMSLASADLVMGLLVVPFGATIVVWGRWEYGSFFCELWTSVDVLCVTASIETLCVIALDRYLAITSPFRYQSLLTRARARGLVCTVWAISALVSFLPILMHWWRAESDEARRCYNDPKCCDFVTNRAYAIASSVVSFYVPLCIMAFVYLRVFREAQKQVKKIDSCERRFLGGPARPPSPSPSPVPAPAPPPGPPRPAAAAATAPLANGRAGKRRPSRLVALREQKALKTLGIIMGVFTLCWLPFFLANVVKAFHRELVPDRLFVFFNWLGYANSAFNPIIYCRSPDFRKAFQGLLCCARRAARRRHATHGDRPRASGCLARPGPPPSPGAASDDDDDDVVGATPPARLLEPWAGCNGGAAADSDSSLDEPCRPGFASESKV
Sequence of Beta-2 adrenergic receptor (P07550 whole entry): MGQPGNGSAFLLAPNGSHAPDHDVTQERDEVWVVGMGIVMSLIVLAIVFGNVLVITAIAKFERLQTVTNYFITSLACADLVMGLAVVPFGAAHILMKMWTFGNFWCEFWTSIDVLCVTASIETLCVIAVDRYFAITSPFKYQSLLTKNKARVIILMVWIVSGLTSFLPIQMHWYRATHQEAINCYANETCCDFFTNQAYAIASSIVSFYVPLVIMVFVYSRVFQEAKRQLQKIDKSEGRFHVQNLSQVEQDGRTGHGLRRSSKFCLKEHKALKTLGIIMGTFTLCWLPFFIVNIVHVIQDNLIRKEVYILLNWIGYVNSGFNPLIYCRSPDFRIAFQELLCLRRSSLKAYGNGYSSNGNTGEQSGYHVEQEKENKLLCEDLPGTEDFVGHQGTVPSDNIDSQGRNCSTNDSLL

SMILES	pEC50 [1]	pEC50 [2]	other results
CC(C)NC(=O)Nc1ccc(C[C@@H](CO)NC[C@H](O)COc2ccccc2)cc1	8.31	7.57	–
O=C(Nc1ccccc1)Nc1ccc(C[C@@H](CO)NC[C@H](O)COc2cccc3[nH]c4ccccc4c23)cc1	7.66	–	–
O=C(Nc1ccccc1)Nc1ccc(CCNC[C@H](O)COc2ccccc2)cc1	8.80	8.44	–
O=C(Nc1ccccc1)Nc1ccc(C[C@@H](CO)NC[C@H](O)c2cccc(Cl)c2)cc1	7.13	–	–
O=C(Nc1ccccc1)Nc1ccc(C[C@@H](CO)NC[C@H](O)COc2ccccc2)cc1	9.30	7.70	AUC [3]: 140 ng·h/mL; Cmax [4]: 4.2 ng/mL; clearance [5]: 142 mL/min/kg; half-life [6]: 8.1 h; Selectivity [7]: > 200; pEC50 [8]: < 7.00; bioavailability [9]: 1.1%; AUC [10]: 4.2 ng·h/mL; bioavailability [11]: 20.3%; T1/2 [12]: 1.3 h; Cmax [13]: 52.6 ng/mL; clearance [14]: 24.2 mL/min/kg
COc1ccc(NC(=O)Nc2ccc(C[C@@H](CO)NC[C@H](O)COc3ccccc3)cc2)cc1	8.60	8.66	–
O=C(Nc1ccc(C[C@@H](CO)NC[C@H](O)COc2ccccc2)cc1)NC1CCCCC1	8.68	7.82	–
COc1ccccc1NC(=O)Nc1ccc(C[C@@H](CO)NC[C@H](O)COc2ccccc2)cc1	8.96	7.92	–
O=C(Nc1ccc(C[C@@H](CO)NC[C@H](O)COc2ccccc2)cc1)Nc1cccc(C(=O)O)c1	8.82	8.89	–
CCCNC(=O)Nc1ccc(C[C@@H](CO)NC[C@H](O)COc2ccccc2)cc1	8.08	7.29	–
O=C(Nc1ccc(C[C@@H](CO)NC[C@H](O)COc2ccccc2)cc1)Nc1cccc([N+](=O)[O-])c1	9.00	9.05	–
COc1cccc(NC(=O)Nc2ccc(C[C@@H](CO)NC[C@H](O)COc3ccccc3)cc2)c1	9.10	8.40	–

— ChEMBL document CHEMBL1142824, “Discovery of a novel, potent and selective human beta3-adrenergic receptor agonist” (Bioorg Med Chem Lett, 2005)
